Data taken from PubChem BioAssay AID1259407 (Chemical Carcinogenesis Research Information System (CCRIS), 2018).
The source made the active and inactive calls. The rule behind the calls is not given here.

Test system: CCRIS mutagenicity, Ames/micronucleus/aberration tests
Assay: CCRIS mutagenicity studies
[1] = Test System: AMES SALMONELLA TYPHIMURIUM, Strain/Indicator: TA98, Metabolic Activation: NONE, Method: STANDARD PLATE
[2] = Test System: AMES SALMONELLA TYPHIMURIUM, Strain/Indicator: TA100, Metabolic Activation: NONE, Method: STANDARD PLATE
[3] = Test System: AMES SALMONELLA TYPHIMURIUM, Strain/Indicator: TA98, Metabolic Activation: RAT, LIVER, S-9, AROCLOR 1254, Method: STANDARD PLATE
[4] = Test System: AMES SALMONELLA TYPHIMURIUM, Strain/Indicator: TA100, Metabolic Activation: RAT, LIVER, S-9, AROCLOR 1254, Method: STANDARD PLATE

SMILES: Nc1nc(-c2ccc([N+](=O)[O-])cc2)nc2nc[nH]c12
- mutagenic call (Test System: AMES SALMONELLA TYPHIMURIUM, Strain/Indicator: TA98(1,8-DNP), Metabolic Activation: NONE, Method: PREINCUBATION): active; positive
- mutagenic call (Test System: AMES SALMONELLA TYPHIMURIUM, Strain/Indicator: TA98(1,8-DNP), Metabolic Activation: RAT, LIVER, S-9, PCB, Method: PREINCUBATION): active; positive
- mutagenic call (Test System: AMES SALMONELLA TYPHIMURIUM, Strain/Indicator: TA98(NR), Metabolic Activation: NONE, Method: PREINCUBATION): active; positive
- mutagenic call (Test System: AMES SALMONELLA TYPHIMURIUM, Strain/Indicator: TA98(NR), Metabolic Activation: RAT, LIVER, S-9, PCB, Method: PREINCUBATION): active; positive
- mutagenic call (Test System: AMES SALMONELLA TYPHIMURIUM, Strain/Indicator: TA98, Metabolic Activation: NONE, Method: PREINCUBATION): active; positive
- mutagenic call (Test System: AMES SALMONELLA TYPHIMURIUM, Strain/Indicator: TA98, Metabolic Activation: RAT, LIVER, S-9, PCB, Method: PREINCUBATION): active; positive
- mutagenic call (Test System: AMES SALMONELLA TYPHIMURIUM, Strain/Indicator: TA100(1,8-DNP), Metabolic Activation: NONE, Method: PREINCUBATION): active; positive
- mutagenic call (Test System: AMES SALMONELLA TYPHIMURIUM, Strain/Indicator: TA100(1,8-DNP), Metabolic Activation: RAT, LIVER, S-9, PCB, Method: PREINCUBATION): active; positive
- mutagenic call (Test System: AMES SALMONELLA TYPHIMURIUM, Strain/Indicator: TA100(NR), Metabolic Activation: NONE, Method: PREINCUBATION): active; positive
- mutagenic call (Test System: AMES SALMONELLA TYPHIMURIUM, Strain/Indicator: TA100(NR), Metabolic Activation: RAT, LIVER, S-9, PCB, Method: PREINCUBATION): active; positive
- mutagenic call (Test System: AMES SALMONELLA TYPHIMURIUM, Strain/Indicator: TA100, Metabolic Activation: NONE, Method: PREINCUBATION): active; positive
- mutagenic call (Test System: AMES SALMONELLA TYPHIMURIUM, Strain/Indicator: TA100, Metabolic Activation: RAT, LIVER, S-9, PCB, Method: PREINCUBATION): active; positive
- mutagenic call (Test System: AMES SALMONELLA TYPHIMURIUM, Strain/Indicator: YG1020, Metabolic Activation: NONE, Method: PREINCUBATION): active; positive
- mutagenic call (Test System: AMES SALMONELLA TYPHIMURIUM, Strain/Indicator: YG1020, Metabolic Activation: RAT, LIVER, S-9, PCB, Method: PREINCUBATION): active; positive
- mutagenic call (Test System: AMES SALMONELLA TYPHIMURIUM, Strain/Indicator: YG1021, Metabolic Activation: NONE, Method: PREINCUBATION): active; positive
- mutagenic call (Test System: AMES SALMONELLA TYPHIMURIUM, Strain/Indicator: YG1021, Metabolic Activation: RAT, LIVER, S-9, PCB, Method: PREINCUBATION): active; positive
- mutagenic call (Test System: AMES SALMONELLA TYPHIMURIUM, Strain/Indicator: YG1024, Metabolic Activation: NONE, Method: PREINCUBATION): active; positive
- mutagenic call (Test System: AMES SALMONELLA TYPHIMURIUM, Strain/Indicator: YG1024, Metabolic Activation: RAT, LIVER, S-9, PCB, Method: PREINCUBATION): active; positive
- mutagenic call (Test System: AMES SALMONELLA TYPHIMURIUM, Strain/Indicator: YG1025, Metabolic Activation: NONE, Method: PREINCUBATION): active; positive
- mutagenic call (Test System: AMES SALMONELLA TYPHIMURIUM, Strain/Indicator: YG1025, Metabolic Activation: RAT, LIVER, S-9, PCB, Method: PREINCUBATION): active; positive
- mutagenic call (Test System: AMES SALMONELLA TYPHIMURIUM, Strain/Indicator: YG1026, Metabolic Activation: NONE, Method: PREINCUBATION): active; positive
- mutagenic call (Test System: AMES SALMONELLA TYPHIMURIUM, Strain/Indicator: YG1026, Metabolic Activation: RAT, LIVER, S-9, PCB, Method: PREINCUBATION): active; positive
- mutagenic call (Test System: AMES SALMONELLA TYPHIMURIUM, Strain/Indicator: YG1029, Metabolic Activation: NONE, Method: PREINCUBATION): active; positive
- mutagenic call (Test System: AMES SALMONELLA TYPHIMURIUM, Strain/Indicator: YG1029, Metabolic Activation: RAT, LIVER, S-9, PCB, Method: PREINCUBATION): active; positive

SMILES: Cc1c(/C=N/OCc2ccccc2)c2cc([N+](=O)[O-])ccc2n1Cc1cccc([N+](=O)[O-])c1
- mutagenic call [1]: active; positive
- mutagenic call (Test System: AMES SALMONELLA TYPHIMURIUM, Strain/Indicator: TA98, Metabolic Activation: RAT, LIVER, S-9, PHENOBARBITAL AND BETA-NAPHTHOFLAVONE, Method: STANDARD PLATE): active; positive
- mutagenic call [2]: inactive; negative
- mutagenic call (Test System: AMES SALMONELLA TYPHIMURIUM, Strain/Indicator: TA100, Metabolic Activation: RAT, LIVER, S-9, PHENOBARBITAL AND BETA-NAPHTHOFLAVONE, Method: STANDARD PLATE): inactive; negative

SMILES: Cc1cc(O)ccc1N
- mutagenic call (Test System: MOUSE LYMPHOMA, Strain/Indicator: L5178Y (TK+/TK-), Metabolic Activation: NONE, Method: SUSPENSION/PLATE): active; positive. reevaluation of results: equivocal
- mutagenic call (Test System: MOUSE LYMPHOMA, Strain/Indicator: L5178Y (TK+/TK-), Metabolic Activation: RAT, LIVER, S-9, AROCLOR 1254, Method: SUSPENSION/PLATE): inactive; negative. reevaluation of results: inconclusive

SMILES: CC(O)CCC(=O)c1ccoc1 (configuration not stated)
- mutagenic call (Test System: AMES SALMONELLA TYPHIMURIUM, Strain/Indicator: TA98, Metabolic Activation: HAMSTER, LIVER, S-9, AROCLOR 1254, Method: STANDARD PLATE): inactive; negative
- mutagenic call [1]: inactive; negative
- mutagenic call [3]: inactive; negative
- mutagenic call (Test System: AMES SALMONELLA TYPHIMURIUM, Strain/Indicator: TA100, Metabolic Activation: HAMSTER, LIVER, S-9, AROCLOR 1254, Method: STANDARD PLATE): inactive; negative
- mutagenic call [2]: inactive; negative
- mutagenic call [4]: inactive; negative
- mutagenic call (Test System: AMES SALMONELLA TYPHIMURIUM, Strain/Indicator: TA1535, Metabolic Activation: HAMSTER, LIVER, S-9, AROCLOR 1254, Method: STANDARD PLATE): inactive; negative
- mutagenic call (Test System: AMES SALMONELLA TYPHIMURIUM, Strain/Indicator: TA1535, Metabolic Activation: NONE, Method: STANDARD PLATE): inactive; negative
- mutagenic call (Test System: AMES SALMONELLA TYPHIMURIUM, Strain/Indicator: TA1535, Metabolic Activation: RAT, LIVER, S-9, AROCLOR 1254, Method: STANDARD PLATE): inactive; negative
- mutagenic call (Test System: AMES SALMONELLA TYPHIMURIUM, Strain/Indicator: TA1537, Metabolic Activation: HAMSTER, LIVER, S-9, AROCLOR 1254, Method: STANDARD PLATE): inactive; negative
- mutagenic call (Test System: AMES SALMONELLA TYPHIMURIUM, Strain/Indicator: TA1537, Metabolic Activation: NONE, Method: STANDARD PLATE): inactive; negative
- mutagenic call (Test System: AMES SALMONELLA TYPHIMURIUM, Strain/Indicator: TA1537, Metabolic Activation: RAT, LIVER, S-9, AROCLOR 1254, Method: STANDARD PLATE): inactive; negative
- mutagenic call (Test System: AMES SALMONELLA TYPHIMURIUM, Strain/Indicator: TA1538, Metabolic Activation: HAMSTER, LIVER, S-9, AROCLOR 1254, Method: STANDARD PLATE): inactive; negative
- mutagenic call (Test System: AMES SALMONELLA TYPHIMURIUM, Strain/Indicator: TA1538, Metabolic Activation: NONE, Method: STANDARD PLATE): inactive; negative
- mutagenic call (Test System: AMES SALMONELLA TYPHIMURIUM, Strain/Indicator: TA1538, Metabolic Activation: RAT, LIVER, S-9, AROCLOR 1254, Method: STANDARD PLATE): inactive; negative

SMILES: c1ccc2c(c1)ccc1c3cccnc3ccc21
- mutagenic call [3]: active; positive
- mutagenic call [4]: active; positive
